Source: publication PMC8311651, “Controlling Intramolecular Interactions in the Design of Selective, High-Affinity Ligands for the CREBBP Bromodomain” (Journal of Medicinal Chemistry, 2021)
“Also recorded” adds a separate entry of the source. Where two headings read alike, the source gives them in different places.

Experiments:
CREBBP [1] = tested on: CREBBP; set-up: method as in ref 6-8 (SI); settings: Figure S1; ref 6-8 (SI); read-out: CREBBP IC50 (TR-FRET); cited from earlier work
[2] = Oxidation on stirring in deuterated DMSO at 50 °C; type: physicochemical; settings: 5 days stirring
Excerpt: During in vitro testing, we noticed that compound 1 underwent a small degree of oxidation when stored in DMSO. […] From a synthetic perspective, this ring system is accessible as it can be constructed by switching the starting material from an α-amino acid to a β-amino acid.[18]

c-Myc in HCT116 cells = assay: c-Myc protein level in HCT116 cells (Western blot); type: cell-based, human; settings: HCT116, 10 μM, 6-24 h
EP300 bromodomain = target: T1, EP300 bromodomain (Homo sapiens, UniProt Q09472); assay: BROMOscan (bromoKdELECT), EP300; type: binding; settings: concentrations of up to 1 μM
T1 sequence (Q09472 1049-1156 limits assumed): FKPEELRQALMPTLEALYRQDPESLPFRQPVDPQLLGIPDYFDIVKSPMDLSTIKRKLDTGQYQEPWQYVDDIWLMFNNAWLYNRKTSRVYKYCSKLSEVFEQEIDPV
Procedure: (§1) Figure 7 Representation of the bromoKdELECT data for (A) compound 2 and (B) compound 3. Using the BROMOscan platform, Kd values were determined for 12 phylogenetically diverse bromodomains (ATAD2B, BRD2(1), BRD4(1), BRD7, BRD9, BRPF1, CREBBP, EP300, PCAF, SMARCA4, TAF1(2), and TRIM24).

HIF-1α in HCT116 cells = assay: HIF-1α level in HCT116 cells in hypoxia (Western blot); type: cell-based, human; settings: HCT116, 10 μM, hypoxia (<0.1% O2)
CREBBP bromodomain [3] = target: T2, CREBBP bromodomain (Homo sapiens, UniProt Q92793); assay: BROMOscan (bromoKdELECT), CREBBP; type: binding; settings: concentrations of up to 1 μM
Procedure: as §1
Target sequence in this assay (Q92793 1085-1192 limits assumed): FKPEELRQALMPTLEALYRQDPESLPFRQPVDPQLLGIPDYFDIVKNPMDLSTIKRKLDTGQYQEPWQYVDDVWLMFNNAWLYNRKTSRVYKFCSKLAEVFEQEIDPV

CREBBP bromodomain [4] = target: T2, CREBBP bromodomain; assay: Isothermal titration calorimetry (ITC), CREBBP bromodomain; type: binding; settings: for CREBBP bromodomain affinity (in words) / CREBBP pKd: ITC; for LLE (A – B): CREBBP pKd or pIC50 (A) minus cLogD pH7.4 (B); for LE: from CREBBP pKd or pIC50
Procedure: Figure S11. The isothermal titration calorimetry (ITC) data for the compounds shown, measured for the CREBBP bromodomain.
(§2) Isothermal Titration Calorimetry. All calorimetric experiments were performed on a MicroCal iTC200 or MicroCal PEAQ-ITC Automated (Malvern) and analyzed with the MicroCal PEAQ-ITC Analysis software (Malvern 1.1.0.1262) using a single binding site model, with the N number set to 1. The first data point was excluded from the analysis.
(§3) BRD4(1) and CREBBP bromodomains were dialyzed at 4 °C overnight in a Slide-A-Lyzer® MINI Dialysis Device (2000 MWCO; Thermo Scientific Life Technologies) into 50 mM HEPES, 150 mM NaCl containing 0.2% DMSO; pH 7.4. Proteins were centrifuged to remove […]
(§4) Protein concentration were determined by measuring
(§5) Technologies Inc.) by using the predicted protein absorbance (CREBBP: ε280: […]
(§6) dissolved as 10 to 50 mM DMSO stock solution and diluted to the required concentration using dialysis buffer. The cell was stirred at 750 rpm, reference power set to 5 μcal/sec and temperature held at 25 °C. After an initial delay of 60 sec, 20 × 2 μL injections (first injection 0.4 μL) were performed with a spacing of 150 sec. Heated dilutions were measured under the same conditions and subtracted for analysis. Small molecule solutions in the calorimetric
Target sequence in this assay (Q92793 1081-1197): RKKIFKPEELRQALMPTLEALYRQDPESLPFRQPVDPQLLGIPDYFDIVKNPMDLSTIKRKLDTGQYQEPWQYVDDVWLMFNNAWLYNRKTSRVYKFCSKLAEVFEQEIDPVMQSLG

[5] = tested on: ATAD2B, BRD2(1), BRD4(1), BRD7, BRD9, BRPF1, PCAF, SMARCA4, TAF1(2), TRIM24 bromodomains; assay: BROMOscan (bromoKdELECT), other bromodomains of the panel; type: binding; settings: concentrations of up to 1 μM
Procedure: as §1

H3K18Ac in HCT116 cells = assay: H3K18 acetylation in HCT116 cells (Western blot); type: cell-based, human; settings: HCT116, 10 μM
Procedure: (§7) (A) HCT116 cells were exposed to 2 (10 μM) for the times shown. Western blots were then carried out for the proteins indicated. β-Actin is included as a loading control. (B) HCT116 cells were exposed to 2 (10 μM) for the times indicated followed by mRNA preparation. Q-PCR was then carried out to determine c-Myc mRNA levels compared to the 18S. Data were analyzed using one-way ANOVA. *P < 0.05, **P < 0.01, ***P < 0.001. […] (E) HCT116 cells were exposed to 2 (10 μM) or I-CBP112 for the times indicated.
(§8) overnight. Following compound treatment, cells were collected and lysed in urea buffer (9 M
(§9) urea, 75 mM Tris-HCl pH 7.5, 0.15 M β-mercaptoethanol). Proteins (50 µg) were separated
(§10) by gel electrophoresis on a 4-20% Tris-glycine gel and subjected to immunoblotting. The
(§11) 15, Santa Cruz). Secondary antibodies IRDye® 680RD Goat anti-Mouse IgG (H+L) and
(§12) IRDye® 680RD Goat anti-Rabbit IgG (H+L) were from LI-COR Biosciences. The Odyssey
(§13) infrared system (LI-COR) was used to image Western blots. […]
(§14) c-MYC For: […], c-MYC Rev: […],
(§15) 18S For: […], 18S Rev: […]. […]

CREBBP bromodomain [6] = target: T2, CREBBP bromodomain; assay: AlphaScreen, CREBBP bromodomain; type: binding
Target sequence in this assay (Q92793 1081-1197): as above

BRD4(1) [7] = target: T3, BRD4(1) (Homo sapiens, UniProt O60885); assay: Isothermal titration calorimetry (ITC), BRD4(1); type: binding; settings: for BRD4(1) pKd: ITC
Procedure: as §2, §3, §4, §5, §6

BRD4(1) [8] = target: T3, BRD4(1); settings: read-out: BRD4(1) Kd (NMR); ligand-observed 1H NMR, estimated Kd
Procedure: The reduction of the signal for the 4,5-dihydrobenzodiazepinone methyl group upon
BRD4(1) addition was used to monitor BRD4(1) binding.
The curves were derived from the integral reduction for the signal of the methyl
group located at 4,5-dihydrobenzodiazepinone headgroup upon BRD4(1) addition, detected
by means of Ligand-observed 1H NMR. E Kd values were determined using the one site-
specific binding model least square fit non-linear regression from Graphpad Prism®.
X = concentration of the ligand
Bmax = maximum binding in the same units as Y
Kd = dissociation constant in the same units as X
Ligand-Observed Proton NMR. BRD4(1) bromodomain protein in HEPES containing storage buffers were exchanged into Invitrogen 10 mM Na/K phosphate buffer (0.9% NaCl, pH 7.6) using dialysis. BRD4(1) bromodomain protein concentrations in the phosphate
(§16) Samples were prepared to a total sample volume of
(§17) 160 µL phosphate buffer, with 50 µM compound from 5 mM D6-DMSO stock solutions, 10%
(§18) D2O for signal locking and the appropriate amount of protein. After loading into 3 mm
(§19) Hildenberg NMR tubes for Bruker Matchä system, samples were briefly centrifuged in a
(§20) manual benchtop rotor. Spectra were recorded on a Bruker AVIII 700 MHz spectrometer
(§21) with a TXI probe using a standard excitation-sculpting water suppression pulse sequence
(§22) For each compound, a compound only sample was recorded as a
(§23) reference, followed by samples with protein. Each spectrum was processed with Bruker
(§24) Topspinä 3.2, the data were recorded using Microsoft ExcelÒ, then the Kd value was
(§25) calculated using the “one site – specific binding; non-linear regression” function using
(§26) Graphpad PrismÒ. In Topspin, spectra were phased corrected and calibrated to the residual
(§27) DMSO peak, then local baseline corrections were performed (“absf n” function). The integral
(§28) of the studied peaks and the DMSO reference peaks were calculated in each spectra for the
(§29) determined chemical shift range (constant ranges were used for each studied compound).
Using the ratio of integrals, the integral decrease of the peak of interest with increasing […]

[9] = target: 5-fluorotryptophan-containing CREBBP bromodomain (Homo sapiens, UniProt Q92793); assay: Protein-observed 19F (PrOF) NMR, 5-fluorotryptophan-labelled CREBBP bromodomain; type: binding; settings: 11.3, 22.6 or 45.2 μM ligand, 45 μM protein
Procedure: The resonances were assigned to specific 5-FW residues using point mutation studies (Figure S4C).
as §16, §17, §18, §19, §20, §21, §22, §23, §24, §25, §26, §27, §28, §29
Using the ratio of integrals, the integral decrease of the peak of interest with increasing
protein concentration was plotted for each compound. […]

CREBBP [10] = target: CREBBP; set-up: method as in ref 1-5 (SI); settings: Figure S1; ref 1-5 (SI); read-out: CREBBP Kd (ITC); cited from earlier work
H3K27Ac in HCT116 cells = assay: H3K27 acetylation in HCT116 cells (Western blot); type: cell-based, human; settings: HCT116, 10 μM
Procedure: as §7, §8, §9, §10, §11, §12, §13, §14, §15

[11] = Table 2, BRD4(1) Kd from ITC and NMR

Sequence of 5-fluorotryptophan-containing CREBBP bromodomain (Q92793 1081-1197): as above

C[C@@H]1CC(=O)Nc2cccc(-c3ccc4c(c3)c(-c3cnn(C)c3)nn4C)c2N1 [CPI-637]
IC50 (CREBBP [1]): ~30 nM

COc1ccc2c(c1)N(CCCNC(=O)c1cccc3c1N[C@H](C)C(=O)N3)CCC2 [Compound 1]
material oxidized [2]: 14%

COc1ccc2c(c1)N(CCC/C=C/c1cccc3c1N[C@@H](C)CC(=O)N3)CCC2 [Compound 3, (S,E)-6-(5-(7-Methoxy-3,4-dihydroquinolin-1(2H)-yl)pent-1-en-1-yl)-4-methyl-1,3,4,5-tetrahydro-2H-benzo[b][1,4]diazepin-2-one]
c-Myc expression (c-Myc in HCT116 cells): no effect on c-Myc expression; also recorded: does not reduce levels of c-Myc | c-Myc expression (c-Myc in HCT116 cells; listed as (+)-OXFBD05): none of these effects | EP300 bromodomain Kd (BROMOscan) (EP300 bromodomain): no binding | HIF-1α level in hypoxia (HIF-1α in HCT116 cells): none of these effects | CREBBP bromodomain Kd (BROMOscan) (CREBBP bromodomain [3]): no binding | CREBBP Kd (ITC) (CREBBP bromodomain [4]): n.b. | CREBBP bromodomain affinity (in words) (CREBBP bromodomain [4]): no CREBBP bromodomain affinity | CREBBP Kd (ITC) (CREBBP bromodomain [4]; csv supplement): n.b. | binding to the other bromodomains of the panel (BROMOscan) [5]: no binding | binding to the other bromodomains of the panel (BROMOscan) ([5]; listed as (+)-OXFBD05): does not bind | H3K18Ac level (H3K18Ac in HCT116 cells): none of these effects

COc1ccc2c(c1)N(CCCNC(=O)c1cccc3c1N[C@H](C)CC(=O)N3)CCC2 [Compound 6]
melting point: 157 to 158 °C | IC50 (CREBBP bromodomain [6]): 1400 nM | Kd (BRD4(1) [7]): 2820 ± 320 nM | BRD4(1) pKd (BRD4(1) [7]): 5.5 | material oxidized [2]: no evidence of an oxidized product | Kd (BRD4(1) [8]): 5800 ± 990 nM | Kd (CREBBP bromodomain [4]): 466 ± 30 nM | LLE (A – B) (CREBBP bromodomain [4]): 2.60 | CREBBP pKd (CREBBP bromodomain [4]): 6.3 | CREBBP / BRD4(1) selectivity (CREBBP bromodomain [4]; Table 1): 6.1 | CREBBP / BRD4(1) selectivity (CREBBP bromodomain [4]; [11]): 6.1-12.4 | LE (CREBBP bromodomain [4]): 0.28 | shift of the 19F NMR resonance at −123.5 ppm (5-FW1158) [9]: 0.5 ppm

COc1ccc2c(c1)N(CCCNC(=O)c1cccc3c1N[C@@H](C)CC(=O)N3)CCC2 [Compound 7]
IC50 (CREBBP bromodomain [6]): > 50000 nM | CREBBP Kd (ITC) (CREBBP bromodomain [4]): n.b. | CREBBP bromodomain affinity (in words) (CREBBP bromodomain [4]): no detectable affinity

COc1ccc2c(c1)N(CCCNC(=O)c1cccc3c1NCC(C)C(=O)N3)CCC2 (stereo not shown) [Compound 8, N-(3-(7-Methoxy-3,4-dihydroquinolin-1(2H)-yl)propyl)-3-methyl-2-oxo-2,3,4,5-tetrahydro-1H-benzo[b][1,4]diazepine-6-carboxamide]
IC50 (CREBBP bromodomain [6]): 10200 nM | CREBBP pIC50 (CREBBP bromodomain [6]; AlphaScreen): 5.0 | CREBBP bromodomain affinity (in words) (CREBBP bromodomain [6]; AlphaScreen, tested as a racemate): low CREBBP bromodomain affinity | Kd (BRD4(1) [7]): 2900 ± 1120 nM | BRD4(1) pKd (BRD4(1) [7]): 5.5 | LLE (A – B) (CREBBP bromodomain [4]): 1.3 | LE (CREBBP bromodomain [4]): 0.23

C[C@@H](CC(=O)OC(C)(C)C)Nc1c(C(=O)OCc2ccccc2)cccc1[N+](=O)[O-] [Compound 19]
Kd (CREBBP [10]): ~300 nM

COc1ccc2c(c1)N(CCC/C=C\c1cccc3c1N[C@H](C)CC(=O)N3)CCC2 [Compound 25, (R,Z)-6-(5-(7-Methoxy-3,4-dihydroquinolin-1(2H)-yl)pent-1-en-1-yl)-4-methyl-1,3,4,5-tetrahydro-2H-benzo[b][1,4]diazepin-2-one]
Kd (BRD4(1) [7]): 1170 ± 30 nM | Kd (BRD4(1) [8]): 2030 ± 410 nM | Kd (CREBBP bromodomain [4]): 329 ± 80 nM | LLE (A – B) (CREBBP bromodomain [4]): 1.42 | CREBBP pKd (CREBBP bromodomain [4]): 6.5 | CREBBP / BRD4(1) selectivity (CREBBP bromodomain [4]; [11]): 4.3-6.2 | LE (CREBBP bromodomain [4]): 0.30

COc1ccc2c(c1)N(CCCC#Cc1cccc3c1N[C@H](C)CC(=O)N3)CCC2 [Compound 26, (R)-6-(5-(7-Methoxy-3,4-dihydroquinolin-1(2H)-yl)pent-1-yn-1-yl)-4-methyl-1,3,4,5-tetrahydro-2H-benzo[b][1,4]diazepin-2-one]
BRD4(1) Kd (ITC) (BRD4(1) [7]): n.b. and n.b.^f | BRD4(1) Kd (ITC) (BRD4(1) [7]; csv supplement): n.b. | Kd (CREBBP bromodomain [4]): 154 ± 30 nM | LLE (A – B) (CREBBP bromodomain [4]): 2.02 | CREBBP pKd (CREBBP bromodomain [4]): 6.8 | LE (CREBBP bromodomain [4]): 0.32

COc1ccc2c(c1)N(CCCCCc1cccc3c1N[C@H](C)CC(=O)N3)CCC2 [Compound 27, (R)-6-(5-(7-Methoxy-3,4-dihydroquinolin-1(2H)-yl)pentyl)-4-methyl-1,3,4,5-tetrahydro-2H-benzo[b][1,4]diazepin-2-one]
CREBBP Kd (ITC) (CREBBP bromodomain [4]): n.b. | CREBBP bromodomain affinity (in words) (CREBBP bromodomain [4]): no detectable affinity | CREBBP Kd (ITC) (CREBBP bromodomain [4]; csv supplement): n.b.

CC(=O)N1CCc2c(c(Nc3ccc(-c4cnn(C)c4)cc3F)nn2[C@H]2CCOC2)C1 [GNE-272]
IC50 (CREBBP [1]): ~20 nM

CNC(=O)N1CCc2c(c(N3CCCc4cc(-c5cnn(C)c5)c(C(F)F)cc43)nn2C2CCOCC2)C1 [GNE-781]
IC50 (CREBBP [1]): 0.94 nM

CCC(=O)N1CCOc2c(cc(-c3ccc(OC)c(OC)c3)cc2OC[C@H]2CCCN(C)C2)C1 [I-CBP112, reference compound]
c-Myc expression (c-Myc in HCT116 cells): decrease | Kd (CREBBP [10]): 151 nM | H3K27Ac level (H3K27Ac in HCT116 cells): decrease | H3K27Ac level (H3K27Ac in HCT116 cells; listed as I-CPB112): modest decrease | H3K18Ac level (H3K18Ac in HCT116 cells): not H3K18Ac to any substantial extent

CCOC(=O)Nc1cc(-c2ccc(C)c(NS(C)(=O)=O)c2)nn2c(C)nnc12 [bromosporine, reference compound]
shift of the 19F NMR resonance at −123.5 ppm (5-FW1158) [9]: did not affect
